# In ChEMBL document CHEMBL5726498, “Substituted benzothiophenyl derivatives as GPR40 agonists for the treatment of type II diabetes” (2017):
# Target: Free fatty acid receptor 1 (Homo sapiens, UniProt O14842)
# Experiment: Calcium Flux Assay: Compounds were tested in a calcium flux assay using transfected HEK293 cells stably expressing either human GPR40 or rat GPR40. Human GPR40 expressing cells were cultured in DMEM-High Glucose media supplemented with 10% fetal bovine serum, 1×L-Glutamine, 1× Penicillin/Streptomycin and 500 μg/mL G418. Rat GPR40 expressing cells were cultured in DMEM-High Glucose media supplemented with 10% fetal bovine serum and 1 μg/mL puromycin. Cells were plated into poly-D-lysine coated 384-well plates and cultured overnight in a 37° C. humidified tissue culture incubator under 5% CO2/[…] atmosphere. On the day of the experiment, the culture media was replaced with assay buffer (HBSS, 20 mM HEPES, 0.1% BSA) and the cells incubated at 37° C. for 1 h. Calcium-sensitive fluorescent dye (Fluo 8 No-Wash Calcium Dye, ABD Bioquest) was then added and the cells incubated for another 30 min at 37° C. followed by 15 min at room temperature while protected from the light. The cell plate and a plate of diluted compounds of Formula (I) were loaded into a fluorescent plate reader that added compounds onto the cells while measuring the fluorescence intensity of each well.
# Free fatty acid receptor 1, sequence (O14842 whole entry): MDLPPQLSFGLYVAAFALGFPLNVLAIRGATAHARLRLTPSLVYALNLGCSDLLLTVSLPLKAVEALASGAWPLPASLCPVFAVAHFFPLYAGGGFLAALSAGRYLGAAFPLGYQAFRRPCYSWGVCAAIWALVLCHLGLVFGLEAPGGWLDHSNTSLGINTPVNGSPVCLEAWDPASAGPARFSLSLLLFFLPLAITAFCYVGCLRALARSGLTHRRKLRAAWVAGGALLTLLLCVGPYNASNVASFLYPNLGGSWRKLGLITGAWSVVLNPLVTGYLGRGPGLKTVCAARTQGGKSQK
smiles,measurement,value
CC#C[C@@H](CC(=O)O)c1ccc(OCc2ccc3scc(-c4ccccc4S(C)(=O)=O)c3c2)cc1,EC50,15 nM
